Source: PMC10051393, “Spectroscopic and Theoretical Analysis of the Interaction between Plasma Proteins and Phthalimide Analogs with Potential Medical Application” (Life, 2023)

What was measured:
[1] = target: T1, bovine serum albumin (BSA) (Bos taurus, UniProt P02769); assay: intrinsic Trp fluorescence quenching, excitation […] nm; format: binding; details: 297 K, pH 7.4, phosphate buffer, 1.0 μM protein, no site marker; double-log
T1 construct: gene ALB; native commercial protein (Sigma-Aldrich), untagged mature serum albumin
T1 sequence (P02769 25-607): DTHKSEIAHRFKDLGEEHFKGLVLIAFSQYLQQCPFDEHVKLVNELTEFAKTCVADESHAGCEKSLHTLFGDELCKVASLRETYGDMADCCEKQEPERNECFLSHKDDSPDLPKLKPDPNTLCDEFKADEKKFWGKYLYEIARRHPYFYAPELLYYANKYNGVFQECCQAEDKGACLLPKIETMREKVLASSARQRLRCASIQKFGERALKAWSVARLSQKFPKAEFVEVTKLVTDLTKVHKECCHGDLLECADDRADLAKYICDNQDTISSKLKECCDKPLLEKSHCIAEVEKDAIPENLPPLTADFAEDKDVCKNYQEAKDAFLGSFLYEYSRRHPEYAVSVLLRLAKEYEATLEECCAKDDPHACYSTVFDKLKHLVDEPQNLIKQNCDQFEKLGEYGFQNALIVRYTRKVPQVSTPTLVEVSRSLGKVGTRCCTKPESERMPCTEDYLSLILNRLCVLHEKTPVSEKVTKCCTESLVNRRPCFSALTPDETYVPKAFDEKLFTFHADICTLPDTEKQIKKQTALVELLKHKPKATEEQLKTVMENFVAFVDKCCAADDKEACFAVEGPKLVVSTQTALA

[2] = system: T2, α1-acid glycoprotein (AAG); orosomucoid; assay: as above; format: binding; details: 297 K, pH 7.4, phosphate buffer, 1.0 μM protein; double-log
T2 construct: gene ORM1; native commercial plasma glycoprotein (Sigma-Aldrich); ORM1 is the main plasma form

SMILES | Binding Parameters / Kb × 10^4 [L.mol^-1] [1] | Binding Parameters / Kb × 10^3 [L.mol^-1] [2]
O=C1c2ccccc2C(=O)N1CN1CCN(c2ccccc2)CC1 [A, compound A] | 1.89 × 10^4 L·mol^−1 | 4.27 × 10^3 L·mol^−1
COc1ccccc1N1CCN(CN2C(=O)c3ccccc3C2=O)CC1 [B, compound B] | 2.01 × 10^4 L·mol^−1 | 1.86 × 10^3 L·mol^−1
O=C1c2ccccc2C(=O)N1CN1CCN(c2cccc(C(F)(F)F)c2)CC1 [C, compound C] | 43.61 × 10^4 L·mol^−1 | 1.48 × 10^3 L·mol^−1
O=C1c2ccccc2C(=O)N1CN1CCN(C(c2ccccc2)c2ccccc2)CC1 [D, compound D] | 11.72 × 10^4 L·mol^−1 | 2.09 × 10^3 L·mol^−1
